The values that follow come from ChEMBL document CHEMBL3045538, “Amino acid chemistry in crop protection” (2010).

The structures appear in SMILES notation. ≈ marks a conversion by molar mass, not a printed value.

Holding throughout (type): functional
One assay deals with Ipomoea purpurea. Kind of assay: Post-emergence herbicidal activity against Ipomoea purpurea (common morning-glory).
The test system of the next assay is Setaria viridis. Description: Post-emergence herbicidal activity against Setaria viridis (green foxtail).
The next assay concerns Abutilon theophrasti. Description: Post-emergence herbicidal activity against Abutilon theophrasti (velvetleaf).
The test system of another assay is Echinochloa crus-galli. Description: Post-emergence herbicidal activity against Echinochloa crus-galli (barnyard grass).
Another assay relates to Digitaria sanguinalis. Kind of assay: Post-emergence herbicidal activity against Digitaria sanguinalis (hairy crabgrass).
The test system of the next assay is Phytophthora infestans. Description: Fungicidal activity against Phytophthora infestans.
Another assay deals with Plasmopara viticola. Description: Fungicidal activity against Plasmopara viticola.

As to `COC(=O)[C@H](C)n1nnc2ccc(Oc3c(F)cc(C(F)(F)F)cc3Cl)cc21`, the ED85 in the assay with Ipomoea purpurea is <32 g/ha; with Setaria viridis, 125 g/ha; in the assay on Abutilon theophrasti, <32 g/ha; in the assay on Echinochloa crus-galli, 63 g/ha; in the assay with Digitaria sanguinalis, 125 g/ha.

The EC80 is the point of the concentration-response curve where the effect stands at 80%. A high value points to a need for much substance. For `CCC#CCOc1ccc(CCNC(=O)[C@@H](NS(C)(=O)=O)[C@@H](C)O)cc1OC`, the EC80 came out at 148 µg/mL (≈ 359 µM) in the assay on Phytophthora infestans and 109 µg/mL (≈ 264 µM) in the assay with Plasmopara viticola.

As for `CCC#CCOc1ccc(CCNC(=O)[C@H](CCC(=O)O)NS(C)(=O)=O)cc1OC`, the EC80 with Phytophthora infestans and with Plasmopara viticola was > 200 µg/mL throughout.

`CCC#CCOc1ccc(CCNC(=O)[C@H](CCSC)NS(C)(=O)=O)cc1OC`: the EC80 in the assay on Phytophthora infestans and with Plasmopara viticola was > 200 µg/mL in each case.

On to `Fc1cc(C(F)(F)F)cc(Cl)c1Oc1ccc2nn[nH]c2c1`, for which the ED85 in the assay on Ipomoea purpurea is <32 g/ha; in the assay with Setaria viridis, >500 g/ha; in the assay with Abutilon theophrasti, 250 g/ha; with Echinochloa crus-galli, >500 g/ha; with Digitaria sanguinalis it was 250 g/ha.

On to `CCn1nnc2ccc(Oc3c(F)cc(C(F)(F)F)cc3Cl)cc21`, for which the ED85 in the assay on Ipomoea purpurea is <32 g/ha; in the assay with Setaria viridis, >500 g/ha; in the assay on Abutilon theophrasti, <32 g/ha; with Echinochloa crus-galli it was >500 g/ha; in the assay on Digitaria sanguinalis, >500 g/ha.

For `C#CCn1nnc2ccc(Oc3c(F)cc(C(F)(F)F)cc3Cl)cc21`, the ED85 in the assay with Ipomoea purpurea was <32 g/ha; in the assay on Setaria viridis, 63 g/ha; in the assay with Abutilon theophrasti, 250 g/ha; in the assay with Echinochloa crus-galli, 250 g/ha; in the assay with Digitaria sanguinalis, 500 g/ha.

As to `COC(=O)Cn1nnc2ccc(Oc3c(F)cc(C(F)(F)F)cc3Cl)cc21`, the ED85 is reported as 0.5 g/ha in the assay on Ipomoea purpurea; 2 g/ha in the assay with Setaria viridis; >8 g/ha in the assay on Abutilon theophrasti; 4 g/ha with Echinochloa crus-galli; >8 g/ha in the assay on Digitaria sanguinalis.

Take `CC(C(=O)O)n1nnc2ccc(Oc3c(F)cc(C(F)(F)F)cc3Cl)cc21` (centres undefined): the ED85 in the assay on Ipomoea purpurea is on record as <0.5 g/ha; with Setaria viridis, 1 g/ha; with Abutilon theophrasti it was 1 g/ha; in the assay with Echinochloa crus-galli, 4 g/ha; in the assay on Digitaria sanguinalis, 8 g/ha.

With `CC(C(N)=O)n1nnc2ccc(Oc3c(F)cc(C(F)(F)F)cc3Cl)cc21` (centres undefined), the ED85 with Ipomoea purpurea was <32 g/ha; in the assay with Setaria viridis, 63 g/ha; in the assay on Abutilon theophrasti, <32 g/ha; in the assay on Echinochloa crus-galli it was 125 g/ha; with Digitaria sanguinalis it was 63 g/ha.

On to `COC(=O)CCn1nnc2ccc(Oc3c(F)cc(C(F)(F)F)cc3Cl)cc21`, for which the ED85 with Ipomoea purpurea is given as <32 g/ha; in the assay with Setaria viridis, 250 g/ha; in the assay on Abutilon theophrasti it was <32 g/ha; in the assay on Echinochloa crus-galli, 125 g/ha; in the assay on Digitaria sanguinalis, <32 g/ha.

In the case of `CCC#CCOc1ccc(CCNC(=O)CNS(C)(=O)=O)cc1OC`, the EC80 in the assay with Phytophthora infestans is 148 µg/mL (≈ 402 µM); in the assay with Plasmopara viticola, > 200 µg/mL.

Regarding `CCC#CCOc1ccc(CCNC(=O)[C@H](C)NS(C)(=O)=O)cc1OC`, the EC80 in the assay on Phytophthora infestans and with Plasmopara viticola was > 200 µg/mL in each case.

Consider `CCC#CCOc1ccc(CCNC(=O)[C@H](CCC)NS(C)(=O)=O)cc1OC`, for which the EC80 in the assay on Phytophthora infestans was 60 µg/mL (≈ 146 µM); with Plasmopara viticola, 20 µg/mL (≈ 48.7 µM).

Regarding `CCC#CCOc1ccc(CCNC(=O)[C@@H](NS(C)(=O)=O)C(C)C)cc1OC`, the EC80 came to 8 µg/mL (≈ 19.5 µM) in the assay on Phytophthora infestans and 2 µg/mL (≈ 4.87 µM) in the assay on Plasmopara viticola.

With `CCC#CCOc1ccc(CCNC(=O)[C@@H](NS(C)(=O)=O)[C@@H](C)CC)cc1OC`, the results for the EC80 in the assay with Phytophthora infestans and with Plasmopara viticola were 3 µg/mL (≈ 7.07 µM) and 2 µg/mL (≈ 4.71 µM), respectively.

As to `CCC#CCOc1ccc(CCNC(=O)[C@H](CC(C)C)NS(C)(=O)=O)cc1OC`, the EC80 in the assay on Phytophthora infestans is 12 µg/mL (≈ 28.3 µM); in the assay with Plasmopara viticola, 18 µg/mL (≈ 42.4 µM).

For `CCC#CCOc1ccc(CCNC(=O)C(NS(C)(=O)=O)C(CC)CC)cc1OC` (racemic), the EC80 in the assay with Phytophthora infestans and with Plasmopara viticola was 16 µg/mL (≈ 36.5 µM) throughout.

Take `CCC#CCOc1ccc(CCNC(=O)C(NS(C)(=O)=O)c2ccc(Cl)cc2)cc1OC` (racemic): the EC80 was determined as 20 µg/mL (≈ 41.8 µM) in the assay on Phytophthora infestans and 15 µg/mL (≈ 31.3 µM) with Plasmopara viticola.

Regarding `C=CCC(NS(C)(=O)=O)C(=O)NCCc1ccc(OCC#CCC)c(OC)c1` (racemic), the figures for the EC80 in the assay on Phytophthora infestans and with Plasmopara viticola were 9 µg/mL (≈ 22 µM) and 49 µg/mL (≈ 120 µM), respectively.
